Measured values taken from the supplement of paper PMC12420376.

Columns and labels:
KURAMOCHI = test: drug sensitivity score (DSS2) on cancer cell count; higher = more sensitive; extreme values may be limits of the assay; conditions: 72 h
Summary of the method: (§1)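 Ovarian cancer cells were grown alone or in 1:1 direct co-culture with lung or skin fibroblasts. They were plated onto 384-well plates pre-spotted acoustically with 528 approved and investigational compounds at 5 concentrations, then treated for 72 h. Cells were fixed, immunostained for CK8/18 with Hoechst, and imaged at 10× (4 fields) to count cancer cells. A drug sensitivity score (DSS2) was derived in Breeze from 4-parameter logistic fits, with screen quality checked by Z'.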

OVCAR8 = test: as above; conditions: 72 h
Summary of the method: as §1

[1] = co-cultured fibroblast: BJHTERT
[2] = co-cultured fibroblast: none (monoculture)

## C[C@H]1C[C@@H](n2c(Nc3ccc(OC(F)(F)F)cc3)nc3cc(CCC(=O)O)ccc32)CC(C)(C)C1
KURAMOCHI; [1]
  drug sensitivity score: 0 DSS
KURAMOCHI; co-cultured fibroblast: WI38
  drug sensitivity score: 0 DSS
KURAMOCHI; [2]
  drug sensitivity score: 0 DSS
OVCAR8; [1]
  drug sensitivity score: 0 DSS
OVCAR8; co-cultured fibroblast: WI38
  drug sensitivity score: 0 DSS
OVCAR8; [2]
  drug sensitivity score: 0 DSS

## C[C@H]1Oc2cc(cnc2N)-c2c(nn(C)c2C#N)CN(C)C(=O)c2ccc(F)cc21
KURAMOCHI; [1]
  drug sensitivity score: 0.7 DSS
KURAMOCHI; co-cultured fibroblast: WI38
  drug sensitivity score: 0 DSS
KURAMOCHI; [2]
  drug sensitivity score: 0 DSS
OVCAR8; [1]
  drug sensitivity score: 0.4 DSS
OVCAR8; co-cultured fibroblast: WI38
  drug sensitivity score: 8.7 DSS
OVCAR8; [2]
  drug sensitivity score: 5.7 DSS

## Cc1c(-c2c(-c3ccc(F)o3)sc3ncnc(O[C@H](Cc4ccccc4OCc4ccnn4CC(F)(F)F)C(=O)O)c23)ccc(OCCN2CCN(C)CC2)c1Cl
KURAMOCHI; [1]
  drug sensitivity score: 0 DSS
KURAMOCHI; co-cultured fibroblast: WI38
  drug sensitivity score: 0 DSS
KURAMOCHI; [2]
  drug sensitivity score: 0 DSS
OVCAR8; [1]
  drug sensitivity score: 0 DSS
OVCAR8; co-cultured fibroblast: WI38
  drug sensitivity score: 0 DSS
OVCAR8; [2]
  drug sensitivity score: 0 DSS

## Cc1c(-c2ccc(N3CCc4cccc(C(=O)Nc5nc6ccccc6s5)c4C3)nc2C(=O)O)cnn1CC12CC3CC(CC(C3)C1)C2
KURAMOCHI; [1]
  drug sensitivity score: 3 DSS
KURAMOCHI; co-cultured fibroblast: WI38
  drug sensitivity score: 8.2 DSS
KURAMOCHI; [2]
  drug sensitivity score: 3.8 DSS
OVCAR8; [1]
  drug sensitivity score: 1.6 DSS
OVCAR8; co-cultured fibroblast: WI38
  drug sensitivity score: 0 DSS
OVCAR8; [2]
  drug sensitivity score: 1.6 DSS

## Cc1c(Cn2c(C)nc3c(C(=O)O)cc(N4CCOCC4)cc32)cccc1C(F)(F)F
KURAMOCHI; [1]
  drug sensitivity score: 5.5 DSS
KURAMOCHI; co-cultured fibroblast: WI38
  drug sensitivity score: 0.3 DSS
KURAMOCHI; [2]
  drug sensitivity score: 6.9 DSS
OVCAR8; [1]
  drug sensitivity score: 3.7 DSS
OVCAR8; co-cultured fibroblast: WI38
  drug sensitivity score: 0 DSS
OVCAR8; [2]
  drug sensitivity score: 0 DSS

## Cc1ccc(C(=O)N(CCCN)[C@@H](c2oc3cc(Cl)ccc3c(=O)c2Cc2ccccc2)C(C)C)cc1
KURAMOCHI; [1]
  drug sensitivity score: 8.3 DSS
KURAMOCHI; co-cultured fibroblast: WI38
  drug sensitivity score: 17.2 DSS
KURAMOCHI; [2]
  drug sensitivity score: 14.6 DSS
OVCAR8; [1]
  drug sensitivity score: 5.2 DSS
OVCAR8; co-cultured fibroblast: WI38
  drug sensitivity score: 7.6 DSS
OVCAR8; [2]
  drug sensitivity score: 29.1 DSS

## Cc1cccc(CC(=O)N2CCc3c2ccc(-c2cn(C)c4ncnc(N)c24)c3F)n1
KURAMOCHI; [1]
  drug sensitivity score: 0.3 DSS
KURAMOCHI; co-cultured fibroblast: WI38
  drug sensitivity score: 0 DSS
KURAMOCHI; [2]
  drug sensitivity score: 0 DSS
OVCAR8; [1]
  drug sensitivity score: 1.4 DSS
OVCAR8; co-cultured fibroblast: WI38
  drug sensitivity score: 0 DSS
OVCAR8; [2]
  drug sensitivity score: 0 DSS

## Cc1nc(Nc2n[nH]c3c2CN(C(=O)N[C@H](CN(C)C)c2ccccc2)C3(C)C)c2sccc2n1
KURAMOCHI; [1]
  drug sensitivity score: 21 DSS
KURAMOCHI; co-cultured fibroblast: WI38
  drug sensitivity score: 24.6 DSS
KURAMOCHI; [2]
  drug sensitivity score: 19.4 DSS
OVCAR8; [1]
  drug sensitivity score: 20.8 DSS
OVCAR8; co-cultured fibroblast: WI38
  drug sensitivity score: 9.4 DSS
OVCAR8; [2]
  drug sensitivity score: 15.5 DSS

## Cc1ncc(Cl)cc1NCc1ccc(C(=O)N[C@@H](CC2CCCC2)C(=O)NC2CC2)s1
KURAMOCHI; [1]
  drug sensitivity score: 0 DSS
KURAMOCHI; co-cultured fibroblast: WI38
  drug sensitivity score: 0 DSS
KURAMOCHI; [2]
  drug sensitivity score: 0 DSS
OVCAR8; [1]
  drug sensitivity score: 0 DSS
OVCAR8; co-cultured fibroblast: WI38
  drug sensitivity score: 0 DSS
OVCAR8; [2]
  drug sensitivity score: 0 DSS

## Cc1nn(C)c(COc2ccc(N3CCN(S(=O)(=O)N(C)C)CC3)cc2)c1-c1cccc2c(CCCOc3cccc4ccccc34)c(C(=O)O)n(CCN3CCOCC3)c12
KURAMOCHI; [1]
  drug sensitivity score: 5.7 DSS
KURAMOCHI; co-cultured fibroblast: WI38
  drug sensitivity score: 8.5 DSS
KURAMOCHI; [2]
  drug sensitivity score: 10.3 DSS
OVCAR8; [1]
  drug sensitivity score: 4.7 DSS
OVCAR8; co-cultured fibroblast: WI38
  drug sensitivity score: 4 DSS
OVCAR8; [2]
  drug sensitivity score: 8.2 DSS

## Cn1cc(-c2ccc(F)c(C(F)(F)F)c2)nc1C1CCN(c2ncnc3[nH]ncc23)CC1
KURAMOCHI; [1]
  drug sensitivity score: 1 DSS
KURAMOCHI; co-cultured fibroblast: WI38
  drug sensitivity score: 0 DSS
KURAMOCHI; [2]
  drug sensitivity score: 0 DSS
OVCAR8; [1]
  drug sensitivity score: 0 DSS
OVCAR8; co-cultured fibroblast: WI38
  drug sensitivity score: 0 DSS
OVCAR8; [2]
  drug sensitivity score: 0.6 DSS

## Cn1cc(C2=Nc3cc(NC(=O)C(N)C4CCCCC4)cc4c3C2=CNNC4=O)cn1 (stereo not drawn)
KURAMOCHI; [1]
  drug sensitivity score: 14.6 DSS
KURAMOCHI; co-cultured fibroblast: WI38
  drug sensitivity score: 12.1 DSS
KURAMOCHI; [2]
  drug sensitivity score: 21 DSS
OVCAR8; [1]
  drug sensitivity score: 16.2 DSS
OVCAR8; co-cultured fibroblast: WI38
  drug sensitivity score: 13 DSS
OVCAR8; [2]
  drug sensitivity score: 16.7 DSS

## N#Cc1ccc(COC[C@H]2O[C@@H](n3c(NCc4ccc(Cl)c(Cl)c4)nc4c(N)ncnc43)[C@H](O)[C@@H]2O)cc1
KURAMOCHI; [1]
  drug sensitivity score: 4.2 DSS
KURAMOCHI; co-cultured fibroblast: WI38
  drug sensitivity score: 3.3 DSS
KURAMOCHI; [2]
  drug sensitivity score: 3.1 DSS
OVCAR8; [1]
  drug sensitivity score: 1 DSS
OVCAR8; co-cultured fibroblast: WI38
  drug sensitivity score: 0 DSS
OVCAR8; [2]
  drug sensitivity score: 5.5 DSS
